The source of these data is patent US20250221977A1, “NOVEL BENZOTHIOPHENE DERIVATIVE AND USE THEREOF AS BET INHIBITOR” (BENOBIO CO., LTD., priority 2022, published 2025).

The subject of the test is HPAF, a human pancreatic cancer cell line. Briefly: In vitro anticancer efficacy test on human pancreatic cancer cell line (CCK cell viability assay). Format: cell-based. Conditions: for IC50: HPAF cells, 96 hours, CCK assay. The method, then:
HPAF, a human pancreatic cancer cell line, was dispensed in a 96-well plate and incubated in a 37° C., 5% CO2 incubator for 24 hours. Thereafter, 10 μl of Examples and Comparative Examples were treated to each well at different concentrations (1 nM, 0.01 μM, 0.1 μM, 1 μM, 10 μM, 100 μM) and incubated for 96 hours. Each well was treated with a reagent using a CCK assay kit (Dong-In LS, D Plus CCK cell viability assay kit), and reacted in a 37° C., 5% CO2 incubator for 30 minutes to 1 hour, and then the absorbance was measured at a wavelength of 450 nm using a microplate reader (SpectraMax i3x, USA). The IC50 value was confirmed using the GraphPad Prism 5 (GraphPad Software, Inc., San Diego, USA) program from the results obtained at this time.

Molecules are shown by their SMILES.

What is called IC50 is the midpoint of a concentration-inhibition curve. As to `CNC(=O)CCN(Cc1ccc(C(F)F)cc1)C(=O)c1cc2c(OC)ccc(-c3ccc(=O)n(C)c3)c2s1` [BBC1115, N-[[4-(difluoromethyl)phenyl]methyl]-4-methoxy-N-[3-(methylamino)-3-oxo-propyl]-7-(1-methyl-6-oxo-3-pyridyl)benzothiophene-2-carboxamide], half-maximal inhibition (Homo sapiens, Pancreatic cancer cell) (IC50) required 130 nM. For the same molecule, the “IC50 value for HPAF, times lower than Comparative Example 1” value (versus JQ1) was “about 17.69 times”.

With `Cc1sc2c(c1C)C(c1ccc(Cl)cc1)=N[C@@H](CC(=O)OC(C)(C)C)c1nnc(C)n1-2` [JQ1, reference compound], it took 2300 nM to reach half-maximal inhibition (IC50).
